Tests used:
[1] = tested on: RIDD (IRE1α-dependent mRNA decay); assay: Real-time PCR of RIDD mRNA targets in INS-1 cells overexpressing IRE1α (Dox); format: cell-based, rat; conditions: 3, 10 μM for 1 hour, then Dox (5 ng/mL) for 24 hours
Description: (§1) RNA Isolation, Quantitative Real-Time PCR, and Primers
(§2) INS-1 or isogenic IRE1α-overexpressing INS-1 cells were plated onto Poly-D-Lysine coated tissue culture plate and grown for 48 hrs. Inhibitors or DMSO were added to the media and incubated for 1 hour at 37° C. with 5% CO2 prior to addition of ER stress agents or Dox as indicated. RNA was isolated from whole cells using either QIAGEN RNeasy Mini kits or Trizol (Invitrogen) and reverse transcribed as above to obtain total cDNA. Then, XBP-1 primers were used to amplify an XBP-1 amplicon spanning the 26 nt intron from the cDNA samples in a regular 3-step PCR. Thermal cycles were: 5 min at 95° C., 30 cycles of 30 s at 95° C., 30 s at 60° C., and 1 min at 72° C., followed by 72° C. for 15 min, and hold at 4° C. Primers used for XBP-1 mRNA splicing were as follows: sense primer XBP1.3 S (5′ […]-3′ (SEQ ID NO:2)) and antisense primer XBP1.2AS (5′-[…]-3′ (SEQ ID NO:3)). PCR fragments were then digested by PstI, resolved on 3% agarose gels, stained with EtBr and quantified by densitometry using ImageJ (NIH). For standard mRNA detection, generally […] total RNA was reverse transcribed using the QuantiTect Reverse Transcription Kit (QIAGEN). For qPCR, we used SYBR green (QIAGEN) and StepOnePlus Real-Time PCR System (Applied Biosystems). Thermal cycles were: 5 min at 95° C., 40 cycles of 15 sec at 95° C., 30 sec at 60° C. Gene expression levels were normalized to Beta Actin. Primers used for qPCR of RIDD targets were as follows: Beta Actin Fwd: 5′-[…]-3′ (SEQ ID NO:4), Beta Actin Rev: 5′-[…]-3′ (SEQ ID NO:5), Insulin 1 Fwd: 5′-GTCCTCTGGGAGCCCAAG-3′ (SEQ ID NO:6), Insulin 1 Rev: 5′-ACAGAGCCTCCACCAGG-3′ (SEQ ID NO:7), Insulin 2 Fwd: 5′-ATCCTCTGGGAGCCCCGC-3′ (SEQ ID NO:8), Insulin 2 Rev: 5′-AGAGAGCTTCCACCAAG-3′ (SEQ ID NO:9), Blos1 Fwd: 5′-[…]-3′ (SEQ ID NO:10), and Blos1 Rev: 5′-[…]-3′ (SEQ ID NO:11).
Real-Time PCR (Q-PCR) used SYBR green and Step OnePlus Real-Time PCR System (Applied Biosystems). Thermal cycles were: 5 min at 95° C., 40 cycles of 15 s at 95° C., 30 s at 60° C. Gene expression levels were normalized to GAPDH. Q-PCR Sense/antisense primers used: Rat GAPDH, 5′-[…]-3′ (SEQ ID NO:14) and 5′-[…]-3′ (SEQ ID NO:15); Rat Ins1, 5′-GTCCTCTGGGAGCCCAAG-3′ (SEQ ID NO:6) and 5′-ACAGAGCCTCCACCAGG-3′ (SEQ ID NO:7); Rat Pdia4, 5′-CGTCTCGCCCTGATTCGT-3′ (SEQ ID NO:16) and 5′-[…]-3′ (SEQ ID NO:17); Rat Blos1, 5′-[…]-3′ (SEQ ID NO:18) and 5′-TGTCCAGTTCGATGCTCCG-3′ (SEQ ID NO:19).
Real-time PCR for FIGS. 34A-34F: Real-Time PCR (Q-PCR) used SYBR green and Step OnePlus Real-Time PCR System (Applied Biosystems). Thermal cycles were: 5 min at 95° C., 40 cycles of 15 s at 95° C., 30 s at 60° C. Gene expression levels were normalized to GAPDH. Q-PCR Sense/antisense primers used: Rat GAPDH, 5′-[…]-3′ (SEQ ID NO:20) and 5′-[…]-3′ (SEQ ID NO:21); Rat Ins1, 5′-GTCCTCTGGGAGCCCAAG-3′ (SEQ ID NO:6) and 5′-ACAGAGCCTCCACCAGG-3′ (SEQ ID NO:7); Rat Ins2, 5′-ATCCTCTGGGAGCCCCGC-3′ (SEQ ID NO:8) and 5′-AGAGAGCTTCCACCAAG-3′ (SEQ ID NO:9); Rat Pdia4, 5′-[…]-3′(SEQ ID NO:22) and 5′-[…]-3′ (SEQ ID NO:23); Rat Blos1, 5′-[…]-3′ (SEQ ID NO:18) and 5′-TGTCCAGTTCGATGCTCCG-3′ (SEQ ID NO:19).

XBP1 mRNA splicing = XBP1 mRNA splicing in INS-1 cells conditionally overexpressing IRE1α (Dox); format: cell-based, rat; conditions: 3, 10 μM for 1 hour, then Dox (1 μg/mL) for 4 hours
Description: as §1, §2
RNA was extracted using Trizol (Invitrogen), DNaseI treated, and cDNA products encompassing the intron amplified by QuantiTect Reverse Transcription Kit (Qiagen). sense Primer rXBP Forward (5′-[…]-3′ (SEQ ID NO:12)) and antisense primer rXBP Reverse (5′-[…]-3′ (SEQ ID NO:13)) were used. PCR fragments were digested by PstI, resolved on 3% agarose gels, stained with EtBr, and quantified by densitometry.
XBP1 splicing for FIGS. 33A-33F: RNA was extracted using Trizol (Invitrogen), cDNA products encompassing the intron amplified by QuantiTect Reverse Transcription Kit (Qiagen). Sense Primer rXBP splicing Forward (5′-[…]-3′ (SEQ ID NO:12)) and antisense primer rXBP splicing Reverse (5′-[…]-3′ (SEQ ID NO:13)) were used. PCR fragments were digested by PstI, resolved on 3% agarose gels, stained with EtBr, and quantified by densitometry.

IRE1α* = biological target: T1, IRE1α* (Homo sapiens, UniProt O75460); assay: In vitro kinase activity assay (IRE1α kinase inhibition); format: biochemical; conditions: IRE1α kinase inhibition; read-out: IC50 IRE1a
T1 construct: human IRE1α (residues 547-977, IRE1α*) was expressed in SF9 insect cells; His6 (N); made in house; host or cells: Sf9 insect cells (Bac-to-Bac baculovirus)
T1 sequence (O75460 547-977): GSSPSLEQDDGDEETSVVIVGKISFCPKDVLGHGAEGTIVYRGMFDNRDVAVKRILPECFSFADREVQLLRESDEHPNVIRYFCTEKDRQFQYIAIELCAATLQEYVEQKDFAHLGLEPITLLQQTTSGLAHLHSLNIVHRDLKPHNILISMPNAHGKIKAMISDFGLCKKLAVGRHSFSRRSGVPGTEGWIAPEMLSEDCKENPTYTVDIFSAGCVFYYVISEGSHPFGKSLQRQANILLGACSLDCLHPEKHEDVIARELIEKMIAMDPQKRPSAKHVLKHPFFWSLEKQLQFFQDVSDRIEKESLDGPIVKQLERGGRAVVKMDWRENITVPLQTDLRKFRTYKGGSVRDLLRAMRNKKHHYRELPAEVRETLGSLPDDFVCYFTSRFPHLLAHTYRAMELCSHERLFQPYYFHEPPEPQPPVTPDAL
Description: A construct containing the cytosolic kinase and RNase domains of human IRE1α (residues 547-977, IRE1α*) was expressed in SF9 insect cells by using the Bac-to-Bac baculovirus expression system (Invitrogen) with a His6 tag at the N-terminus and purified with a nickel-nitriloacetic acid (Qiagen) column. To generate dP-IRE1α*, we removed basal phosphorylation sites by incubating IRE1α* with λ-PPase (New England Biolabs) at a molar ratio of 5:1 (IRE1α*: λ-PPase) in 50 mM HEPES pH 7.5, 100 mM NaCl, 1 mM MnCl2, 2 mM dithiothreitol (DTT) and 0.01% Brij 35 detergent (v/v) overnight at 4° C. Dephosphorylation was verified through western blotting using a universal phospho-protein detection agent (biotin-pIMAGO (Tymora Analytical Operations, Cat. No.: FL800) and imaged using a streptavidin-linked fluorophore.
In Vitro Kinase Activity Assay
Inhibitors (initial concentration of 10 or 60 μM, three-fold serial dilutions) were incubated with IRE1α* in cleavage buffer (20 mM HEPES, 0.05% Triton X-100 (v/v), 50 mM KCl, 1 mM MgCl2, 1 mM DTT, pH 7.5) for 30 min, followed by incubation with 10 μCi [γ^32P] ATP (3,000 Ci mmol^−1, PerkinElmer) at 23° C. for 3 hours. Samples were then spotted onto glass fiber paper (Easytab-C Glass Fiber Filter Paper, Perkin Elmer) and washed in twice with 0.5% phosphoric acid and autoradiographed using a GE Typhoon FLA 9000 Imager. Blots were quantitated using ImageQuant software. The percent inhibition was quantified by setting the background (no kinase well) as 0 and standardizing to IRE1α* without compound treatment (IRE1α*+DMSO). Dose-response curves were fit using “one-site fit log IC50” parameter using GraphPad Prism analysis software.
Compound Characterization (IC50 IRE1α Kinase Inhibition)

| Compound | RIDD mRNA targets (Ins1, Ins2, Pdia4) [1] | % spliced XBP1 amplicons (XBP1 mRNA splicing) | IC50 (IRE1α*) |
| --- | --- | --- | --- |
| Cc1cc(NS(=O)(=O)C2CC2)c2ccccc2c1Oc1ncccc1-c1ccnc(N[C@@H]2CNC[C@@H](F)C2)n1 [LBC-412, N-(4-((3-(2-(((3S,5S)-5-fluoropiperidin-3-yl)amino)pyrimidin-4-yl)pyridin-2-yl)oxy)-3-methylnaphthalen-1-yl) cyclopropane sulfonamide] | block RIDD | do not suppress XBP mRNA splicing | 13 nM |
| Cc1cc(NS(=O)(=O)C2CCC2)c2ccccc2c1Oc1ncccc1-c1ccnc(N[C@@H]2CNC[C@@H](F)C2)n1 [LBC-411, N-(4-((3-(2-(((3S,5S)-5-fluoropiperidin-3-yl)amino)pyrimidin-4-yl)pyridin-2-yl)oxy)-3-methylnaphthalen-1-yl)cyclobutanesulfonamide] | block RIDD | do not suppress XBP mRNA splicing | 4.4 nM |

— patent US11884649B2, “IRE1α inhibitors and uses thereof” (The Regents of the University of California, priority 2020, dated 2024)
